In patent US9485988B2, “Turfgrass fungicide formulation with pigment” (Suncor Energy Inc., priority 2008, dated 2016):

Columns and labels:
Assay type in all cases: in vivo
[1] = system: fall armyworms (Spodoptera frugiperda); test: Example 29: survival of fall armyworm larvae on treated grass clippings; settings: 5 larvae/container, 4 days at 25° C.
Protocol: The efficacy of an embodiment of the 2-pack formulation against different larval stages of fall armyworms (Spodoptera frugiperda) was determined under laboratory conditions. Embodiments of the invention were compared to a conventional pesticide Cyfluthrin.
• 1) Larvae were obtained from Benzon Research Inc. • 2) 5 larvae/container and 3 containers=1 replication • 3) Treatments=1) Control • 2) 2-pack formulation at 5% dilution • 3) Cyfluthrin (insecticide), Al=0.75%, 3 fl oz/gal H2O (22 mL/L) • 4) Container=760 ml plastic bowl with lid containing moist filter paper on bottom and grass clippings • 5) St. Augustinegrass clippings dipped into respective fungicide treatment, drained to dry and put into container • 6) Hold 4 days at 25° C. and measure survival • 7) 7 replications of small larvae (2-10 mm) tested • 8) 6 replications of medium larvae (11-20 mm) tested • 9) 6 replications of large larvae (21-30 mm) tested • 10) Statistical analysis=Least Significant Difference (LSD) test Results: […]

tropical sod webworms = test: Example 29: survival of tropical sod webworm larvae
Protocol: • 1) Larvae were obtained from Benzon Research Inc. • 2) 5 larvae/container and 3 containers=1 replication • 3) Treatments=1) Control • 2) 2-pack formulation at 5% dilution • 3) Cyfluthrin (insecticide), Al=0.75%, 3 fl oz/gal H2O (22 mL/L) • 4) Container=760 ml plastic bowl with lid containing moist filter paper on bottom and grass clippings • 5) St. Augustinegrass clippings dipped into respective fungicide treatment, drained to dry and put into container • 6) Hold 4 days at 25° C. and measure survival • 7) 7 replications of small larvae (2-10 mm) tested • 8) 6 replications of medium larvae (11-20 mm) tested • 9) 6 replications of large larvae (21-30 mm) tested • 10) Statistical analysis=Least Significant Difference (LSD) test Results:
Similar testing was conducted to determine the efficacy of embodiments of the 2-pack formulation to kill all sizes larvae (small, medium and large) of tropical sod webworms.

[2] = Synergy of the formulations when mixed with conventional chemical fungicides; settings: contact fungicide

SMILES | Mean survival, Large larvae ([1]; large larvae (21-30 mm)) [B] | Mean survival, Medium larvae ([1]; medium larvae (11-20 mm)) [B] | Mean survival, Small larvae ([1]; small larvae (2-10 mm)) [B] | Mean survival, Large larvae (tropical sod webworms; Large sod webworm larvae) [B] | Mean survival, Medium larvae (tropical sod webworms; Medium sod webworm larvae) [B] | Mean survival, Small larvae (tropical sod webworms; Small sod webworm larvae) [B] | synergistic effect when mixed with embodiments of the invention [2]
CC1(C)C(C=C(Cl)Cl)C1C(=O)OC(C#N)c1ccc(F)c(Oc2ccccc2)c1 (stereo not shown) [Cyfluthrin] | 0 | 0 | 0 | 0.3 | 0 | 0 | –
N#Cc1c(Cl)c(Cl)c(Cl)c(C#N)c1Cl [chlorothalonil] | – | – | – | – | – | – | synergistic effect was not observed
